The record followed here is patent publication US20050282743A1, “Molecular interactions in cells” (Arbor Vita Corporation, priority 2001, published 2005).

Each structure is given as a SMILES string. Like-named read-outs stand apart in the source and are kept apart here.

What all share (assay): Apparent affinity (Kd) by titration of PL peptide in the G assay
Holding throughout (format): binding

Experiment [1] deals with T1, PDZ-domain polypeptide (GST/PDZ fusion protein) (Homo sapiens, UniProt P78352).
T1 construct: made in house; host or cells: E. coli (DH5alpha, BL21 or JM109)
T1 sequence (P78352 whole entry, the tested form may be a part): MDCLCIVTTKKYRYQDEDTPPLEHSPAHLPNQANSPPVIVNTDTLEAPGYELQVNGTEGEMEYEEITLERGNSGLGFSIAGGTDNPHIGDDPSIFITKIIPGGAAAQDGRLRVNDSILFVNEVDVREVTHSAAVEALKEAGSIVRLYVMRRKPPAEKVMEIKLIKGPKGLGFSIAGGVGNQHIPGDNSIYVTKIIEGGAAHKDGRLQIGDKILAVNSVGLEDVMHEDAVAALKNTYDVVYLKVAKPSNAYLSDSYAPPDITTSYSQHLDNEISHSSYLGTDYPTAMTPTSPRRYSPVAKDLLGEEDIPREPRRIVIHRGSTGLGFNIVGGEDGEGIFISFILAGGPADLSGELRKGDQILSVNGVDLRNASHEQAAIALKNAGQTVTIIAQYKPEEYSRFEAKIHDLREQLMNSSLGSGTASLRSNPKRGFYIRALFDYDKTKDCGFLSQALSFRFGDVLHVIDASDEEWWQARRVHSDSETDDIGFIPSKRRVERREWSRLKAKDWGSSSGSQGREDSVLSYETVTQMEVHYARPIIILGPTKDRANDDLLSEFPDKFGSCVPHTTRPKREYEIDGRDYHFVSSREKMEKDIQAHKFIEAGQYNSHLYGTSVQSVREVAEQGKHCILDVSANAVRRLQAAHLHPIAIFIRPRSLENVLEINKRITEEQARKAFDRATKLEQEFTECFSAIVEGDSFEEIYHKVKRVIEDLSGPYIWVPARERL
The procedure, abridged: (§1)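 A fixed concentration of GST/PDZ fusion protein, 5 ug/ml by default, was mixed in solution with increasing labeled PL peptide (e.g. 0.1 uM-1 mM). Reaction times ranged from 10 minutes to 2 days at 4-37° C. Complexes were separated from free peptide and detected via the label as in the G assay, apparent affinity coming from the saturating concentration.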

Experiment [2] concerns the target T2, PDZ-domain polypeptide (GST/PDZ fusion protein) (Homo sapiens, UniProt Q12959).
T2 construct: made in house; host or cells: E. coli (DH5alpha, BL21 or JM109)
The conditions noted are these: read-out: Peptide Optimal Conc (Kd by titration of the PL peptide). The procedure, abridged:
as §1

Experiment [3] has as its target T3, PDZ-domain polypeptide (GST/PDZ fusion protein) (Homo sapiens, UniProt Q15700).
T3 construct: made in house; host or cells: E. coli (DH5alpha, BL21 or JM109)
The settings on record: PDZ DLG2, PDZ Domain 2; Protein Optimal Conc 0.5. In outline:
as §1

T2 sequence (Q12959 whole entry, the tested form may be a part): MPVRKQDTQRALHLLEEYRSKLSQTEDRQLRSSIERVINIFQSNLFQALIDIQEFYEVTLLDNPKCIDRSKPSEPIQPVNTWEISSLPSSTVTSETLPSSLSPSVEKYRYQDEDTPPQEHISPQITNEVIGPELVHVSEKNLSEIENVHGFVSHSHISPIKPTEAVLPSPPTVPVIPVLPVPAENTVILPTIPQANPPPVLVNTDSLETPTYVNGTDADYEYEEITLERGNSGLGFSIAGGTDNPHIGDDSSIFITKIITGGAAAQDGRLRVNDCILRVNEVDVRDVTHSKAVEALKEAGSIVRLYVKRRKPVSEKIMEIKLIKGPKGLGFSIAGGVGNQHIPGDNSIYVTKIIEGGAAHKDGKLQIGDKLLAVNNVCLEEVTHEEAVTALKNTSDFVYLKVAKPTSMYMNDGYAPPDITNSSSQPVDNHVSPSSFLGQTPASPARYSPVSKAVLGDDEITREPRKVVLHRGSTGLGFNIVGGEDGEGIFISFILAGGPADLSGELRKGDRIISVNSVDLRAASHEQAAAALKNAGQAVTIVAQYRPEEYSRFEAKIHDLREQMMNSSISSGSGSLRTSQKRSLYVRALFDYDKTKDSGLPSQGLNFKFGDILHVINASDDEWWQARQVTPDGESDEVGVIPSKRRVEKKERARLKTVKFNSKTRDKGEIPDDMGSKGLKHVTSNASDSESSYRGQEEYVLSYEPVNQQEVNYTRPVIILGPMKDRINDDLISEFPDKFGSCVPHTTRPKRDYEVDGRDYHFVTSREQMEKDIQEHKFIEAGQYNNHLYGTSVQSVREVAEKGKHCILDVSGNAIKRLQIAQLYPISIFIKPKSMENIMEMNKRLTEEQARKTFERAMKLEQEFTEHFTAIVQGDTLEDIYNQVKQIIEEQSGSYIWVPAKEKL
T3 sequence (Q15700 whole entry, the tested form may be a part): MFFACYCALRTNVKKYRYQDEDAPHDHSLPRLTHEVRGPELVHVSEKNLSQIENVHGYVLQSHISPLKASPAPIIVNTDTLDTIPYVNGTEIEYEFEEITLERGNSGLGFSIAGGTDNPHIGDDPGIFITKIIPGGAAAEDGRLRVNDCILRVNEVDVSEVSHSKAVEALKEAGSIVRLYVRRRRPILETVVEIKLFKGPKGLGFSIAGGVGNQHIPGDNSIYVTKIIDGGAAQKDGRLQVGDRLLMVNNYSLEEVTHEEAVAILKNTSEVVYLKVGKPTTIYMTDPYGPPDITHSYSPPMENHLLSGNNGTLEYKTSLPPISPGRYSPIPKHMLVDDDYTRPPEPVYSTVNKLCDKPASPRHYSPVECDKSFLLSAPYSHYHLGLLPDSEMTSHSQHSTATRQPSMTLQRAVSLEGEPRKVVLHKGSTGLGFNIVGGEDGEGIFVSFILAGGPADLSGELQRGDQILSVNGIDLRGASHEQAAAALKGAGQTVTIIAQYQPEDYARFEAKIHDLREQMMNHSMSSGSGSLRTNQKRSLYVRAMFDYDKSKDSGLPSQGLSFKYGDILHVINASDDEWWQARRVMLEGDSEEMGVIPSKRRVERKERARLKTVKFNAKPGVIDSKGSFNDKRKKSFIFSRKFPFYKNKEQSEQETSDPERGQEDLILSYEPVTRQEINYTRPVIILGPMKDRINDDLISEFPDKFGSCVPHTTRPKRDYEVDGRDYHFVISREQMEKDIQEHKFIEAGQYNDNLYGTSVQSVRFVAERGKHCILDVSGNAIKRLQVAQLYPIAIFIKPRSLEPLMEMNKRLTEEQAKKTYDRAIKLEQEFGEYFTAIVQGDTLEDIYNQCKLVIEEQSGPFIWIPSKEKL

Turning to `CC[C@H](C)[C@H](NC(=O)[C@H](CCCCN)NC(=O)[C@@H](NC(=O)[C@H](CO)NC(=O)[C@@H]1CCCN1C(=O)[C@H](Cc1ccccc1)NC(=O)[C@@H](NC(=O)[C@@H](NC(=O)[C@H](CCCNC(=N)N)NC(=O)[C@H](CCC(=O)O)NC(=O)[C@H](CC(C)C)NC(=O)[C@H](CC(C)C)NC(=O)[C@H](CC(C)C)NC(=O)[C@@H](NC(=O)CNC(=O)[C@@H](NC(=O)CCCC[C@@H]1SC[C@@H]2NC(=O)N[C@@H]21)C(C)C)[C@@H](C)O)C(C)C)[C@@H](C)CC)C(C)C)C(=O)N[C@@H](C)C(=O)N[C@H](C(=O)N[C@@H](CC(C)C)C(=O)N[C@H](C(=O)O)C(C)C)[C@@H](C)O` [Adenovirus E4 Type9], the Kd in experiment [1] (PDZ PSD95, PDZ Domain 1, Protein Optimal Conc 5, read-out: Peptide Optimal Conc (Kd by titration of the PL peptide)) was determined as 100 nM; in experiment [2] (PDZ DLG1, PDZ Domain 1, Protein Optimal Conc 0.5), 100 nM; in experiment [2] (PDZ DLG1, PDZ Domain 2, Protein Optimal Conc 0.3), 30 nM; in experiment [3], 50 nM.
For the compound `CC[C@H](C)[C@H](NC(=O)[C@H](CO)NC(=O)[C@@H](NC(=O)[C@H](Cc1ccccc1)NC(=O)[C@H](CO)NC(=O)CCCC[C@@H]1SC[C@@H]2NC(=O)N[C@@H]21)[C@@H](C)O)C(=O)N[C@@H](CC(C)C)C(=O)N[C@H](C(=O)N[C@@H](CS)C(=O)N[C@@H](Cc1c[nH]cn1)C(=O)N[C@@H](CCC(N)=O)C(=O)N[C@@H](CCCNC(=N)N)C(=O)N[C@@H](CCCNC(=N)N)C(=O)N[C@H](C(=O)N[C@@H](CCC(N)=O)C(=O)N[C@@H](CCCNC(=N)N)C(=O)N[C@@H](CCCCN)C(=O)N[C@@H](CCC(=O)O)C(=O)N[C@H](C(=O)N[C@H](C(=O)N[C@@H](C)C(=O)O)C(C)C)[C@@H](C)O)[C@@H](C)O)[C@@H](C)O` [GluR5-2 (rat)], the Kd in experiment [1] (PDZ PSD95, PDZ Domain 3, titration of the PL peptide, read-out: Peptide Optimal Conc (Kd, dissociation constant)) was found to be 100 nM.
